# Measurements as given in US7244847B2, “Benzimidazole compounds” (Isis Pharmaceuticals, Inc., priority 2002, dated 2007).
# Where two headings read alike, the source gives them in different places.
# Key:
# E. coli [1] = test: MIC assay of Example 20, E. coli; assay type: cell-based; conditions: Tables 4-7
# Experimental: (§1) The assays are carried out in 150 μL volume in duplicate in 96-well clear flat-bottom bottom plates. The bacterial suspension from an overnight culture growth in appropriate medium is added to a solution of test compound in 4% DMSO in water. Final bacterial inoculum is approximately 10^5-10^6 CFU/well. The percent growth of the bacteria in test wells relative to that observed for a well containing no compound is determined by measuring absorbance at 595 nm (A595) after 24 h. The MIC is determined as a range of single compound where the complete inhibition of growth is observed at the higher concentration and cells are viable at the lower concentrations. Both ampicillin and tetracycline are used as antibiotic-positive controls in each screening assay for S. pyogenes, E. coli, S. aureus, E. faecalis, K. pneumoniae and P. vulgaris; . Ciprofloxacin is used as an antibiotic positive control in each screening assay for P. aeruginosa.
# S. aureus [2] = test: MIC assay of Example 20, S. aureus; assay type: cell-based; conditions: Tables 4-7
# Experimental: as §1
# [3] = system: Bacterial Transcription/Translation; test: bacterial transcription/translation assay (pBestLuc luciferase, E. coli S30 extract); assay type: biochemical
# Experimental: This series of assays is known to those of skill in the art, and other assays may be substituted therefore without deviating from the spirit and scope hereof. The DNA template, pBestLuc™ (Promega), is a plasmid containing a reporter gene for firefly luciferase fused to a strong tac promoter and ribosome binding site. Messenger RNA from 1 μg pBestLuc is transcribed and translated in E. coli S30 bacterial extract in the presence or absence of test compound. Compounds are tested in a black 96 well microtiter plate with an assay volume of 35 μL. […] The transcription/translation reaction is incubated for 35 minutes at 37° C. followed by detection of functional luciferase with the addition of 30 μL LucLite™ (Packard). Light output is quantitated on a Packard TopCount.
# Ag IIa HCV IRES Target = test: MASS screening against Ag IIa HCV IRES target; assay type: binding; conditions: target conc. […], ligand conc. 50 μM; for Selectivity: by mass spectral analysis
# Experimental: A series of 2-aminobenzimidazole dimers were synthesized according to the procedure described in Example 11. A series of 5- and 6-substituted-2-aminobenzimidazoles also were synthesized, and all were evaluated for biological activity. Tables 4-7 report MIC and transcription/translation activity for the dimer compounds By the outlined procedure. Tables 8 and 9 report the MASS screening of 2-aminobenzimidazoles against the AgIIa HCV-IRES target. The reported selectivity was determined by mass spectral analysis of any associations and provides information about the relative binding affinities.
# S. aureus [4] = test: in vitro antibacterial activity (MIC) against S. aureus; assay type: cell-based; conditions: Staphylococcus aureus; Tables 1 and 2
# Experimental: (§2) Compounds were evaluated for in vitro antibacterial activity (referred to MIC, the minimum concentration inhibiting fungal cell growth) against S. aureus and E. coli. […] The assays are carried out in 150 mL volume in duplicate in 96-well clear flat-bottom plates. […] Final bacterial or yeast inoculum is approximately 10^2-10^3 CFU/well. […] (bacteria) or 40-48 hours (yeast) at 25° C. The MIC is determined as a range of concentration where complete inhibition of growth is observed at the higher concentration and bacterial/yeast cells are viable at the lower concentration. Ampicillin and tetracycline are used as antibiotic positive controls for bacterial MIC assays.
# (§3) The assays are carried out in 150 μL volume in duplicate in 96-well clear flat-bottom plates. […] Final bacterial or yeast inoculum is approximately 10^2-10^3 CFU/well. […] (bacteria) or 40-48 hours (yeast) at 25° C. The MIC is determined as a range of concentration where complete inhibition of growth is observed at the higher concentration and bacterial/yeast cells are viable at the lower concentration. Ampicillin and tetracycline are used as antibiotic positive controls for bacterial MIC assays.
# E. coli [5] = test: in vitro antibacterial activity (MIC) against E. coli; assay type: cell-based; conditions: Escherichia coli; Tables 1 and 2
# Experimental: as §2, §3
# E. coli 16S A-site [6] = test: MS-based assay of binding affinity for 16S RNA A-site
# Source text: It has been established that the 16S A-site is involved in bacterial translation, and the aminoglycosides are known to bind to the region. Thus, the bacterial 16S A-site represents a prime target for discovering antibacterial agents, and much work has focused on the modification of the natural aminoglycosides. […] These are shown below in Scheme 17. [drawing 31]
# The synthesis of compound 1 and piperidine-modified benzimidazoles are shown above in Scheme 17.
# A series of benzimidazole-modified analogs were prepared as shown above. The procedure required the simple heating of a suitable 1,2-dianiline (8) with isonipecotic acid (9) in the presence of polyphosphoric acid.
# E. coli 16S A-site [7] = test: MS-based competition experiments to determine the binding location; conditions: competition of 1 with glucosamine
# Source text: MS-based competition experiments were used to determine the binding location of 1 to the target RNA. Glucosamine is the A-ring of paromomycin that is known to bind to the target RNA and inhibits bacterial translation.
# [8] = Tables 4-7, read-out: Transcription/Translation, IC50
smiles,measurement,setting,value
CN(CCCn1c(N)nc2ccccc21)CCCn1c(N)nc2ccccc21,MIC,E. coli [1]; Escherichia coli,25 to 50 µM
same,MIC,S. aureus [2]; Staphylococcus aureus,75 to 100 µM
same,IC50,[3]; [8],25 µM
CN(CCCn1c(N)nc2cc(Br)ccc21)CCCn1c(N)nc2cc(Br)ccc21,MIC,E. coli [1]; Escherichia coli,25 to 50 µM
same,MIC,S. aureus [2]; Staphylococcus aureus,25 to 50 µM
same,IC50,[3]; [8],> 100 µM
Cc1ccc2nc(N)n(CCCN(C)CCCn3c(N)nc4ccc(C)cc43)c2c1,MIC,E. coli [1]; Escherichia coli,> 100 µM
same,MIC,S. aureus [2]; Staphylococcus aureus,> 100 µM
same,IC50,[3]; [8],6 to 12 µM
COC(=O)c1ccc2c(c1)nc(N)n2CCCN(C)CCCn1c(N)nc2cc(C(=O)OC)ccc21,MIC,E. coli [1]; Escherichia coli,> 200 µM
same,MIC,S. aureus [2]; Staphylococcus aureus,> 200 µM
same,IC50,[3]; [8],> 100 µM
CN(CCCn1c(N)nc2cc(C(F)(F)F)ccc21)CCCn1c(N)nc2cc(C(F)(F)F)ccc21,MIC,E. coli [1]; Escherichia coli,25 to 50 µM
same,MIC,S. aureus [2]; Staphylococcus aureus,50 to 100 µM
same,IC50,[3]; [8],> 100 µM
CN(CCCn1c(N)nc2cc(C#N)ccc21)CCCn1c(N)nc2cc(C#N)ccc21,MIC,E. coli [1]; Escherichia coli,> 200 µM
same,MIC,S. aureus [2]; Staphylococcus aureus,> 200 µM
same,IC50,[3]; [8],> 200 µM
CN(C)CCCn1c(N)nc2cc(CN)ccc21 [CH2NH2],% Complex,Ag IIa HCV IRES Target,109%
same,% Dimer,Ag IIa HCV IRES Target,80%
same,Selectivity,Ag IIa HCV IRES Target,2.3
Cc1ccc2nc(N)n(CCCN(C)C)c2c1 [CH3],% Complex,Ag IIa HCV IRES Target,136%
same,% Dimer,Ag IIa HCV IRES Target,31%
same,Selectivity,Ag IIa HCV IRES Target,6.55
CC(C)(C)OC(=O)N1CCC(c2nc3cc(Cl)c(Cl)cc3n2Cc2ccc(CBr)cc2)CC1 [Compound 4g],MIC,S. aureus [4],52 µM
same,IC50,"[3]; Tables 1 and 2, bacterial transcription/translation, read-out: T/T IC50 MIC",> 100 µM
same,MIC,E. coli [5],> 100 µM
CC(=O)N1CCC(c2nc3cc([N+](=O)[O-])ccc3[nH]2)CC1 [Compound 7a],"binding affinity for 16S RNA A-site, in words",E. coli 16S A-site [6],diminished the binding affinity
Cc1ccc2[nH]c(C3CCNCC3)nc2c1 [Compound 10b],"binding affinity for 16S RNA A-site, in words",E. coli 16S A-site [6],tolerated
Clc1ccc2[nH]c(C3CCNCC3)nc2c1 [Compound 10d],"binding affinity for 16S RNA A-site, in words",E. coli 16S A-site [6],tolerated
c1cnc2nc(C3CCNCC3)[nH]c2c1 [Compound 10j],"binding affinity for 16S RNA A-site, in words",E. coli 16S A-site [6],reduced activities
CN(C)CCCn1c(N)nc2ccccc21 [H],% Complex,Ag IIa HCV IRES Target,125%
same,% Dimer,Ag IIa HCV IRES Target,35%
same,Selectivity,Ag IIa HCV IRES Target,4.30
CN(C)CCCOc1ccc2nc(N)n(CCCN(C)C)c2c1 [O(CH2)3N(CH3)2],% Complex,Ag IIa HCV IRES Target,862%
same,% Dimer,Ag IIa HCV IRES Target,72%
same,Selectivity,Ag IIa HCV IRES Target,96.88
COc1ccc2nc(N)n(CCCN(C)C)c2c1 [OCH3],% Complex,Ag IIa HCV IRES Target,286%
same,% Dimer,Ag IIa HCV IRES Target,39%
same,Selectivity,Ag IIa HCV IRES Target,10.67
CN(CCn1c(N)nc2cc(Cl)c(Cl)cc21)CCn1c(N)nc2cc(Cl)c(Cl)cc21 [X = Cl],MIC,E. coli [1],>100 µM
same,MIC,S. aureus [2],>100 µM
same,IC50,[3]; [8],> 100 µM
CN(CCn1c(N)nc2ccccc21)CCn1c(N)nc2ccccc21 [X = H],MIC,E. coli [1],>100 µM
same,MIC,S. aureus [2],>100 µM
same,IC50,[3]; [8],> 100 µM
CN(CCCn1c(N)nc2cc(Cl)c(Cl)cc21)CCCn1c(N)nc2cc(Cl)c(Cl)cc21 [X = N—Me],"MIC, E. coli",E. coli [1],25 to 50 µM
same,"MIC, S. aureus",S. aureus [2],75 to 100 µM
same,IC50,[3]; [8],25 µM
CN(CCCn1c(N)nc2cc(Cl)c(Cl)cc21)CCCn1c(N)nc2cc(Cl)c(Cl)cc21 [drawing 35],MIC,E. coli [1]; Escherichia coli,12 to 25 µM
same,MIC,S. aureus [2]; Staphylococcus aureus,12 to 25 µM
same,IC50,[3]; [8],> 100 µM
CN(C)CCCn1c(N)nc2ccccc21 [drawing 42],MIC,E. coli [1]; Escherichia coli,> 50 µM
same,MIC,S. aureus [2]; Staphylococcus aureus,> 50 µM
same,IC50,[3]; [8],> 100 µM
N[C@H]1C(O)O[C@H](CO)[C@@H](O)[C@@H]1O (some centres unmarked) [glucosamine],"binding site on the target RNA (competition), in words",E. coli 16S A-site [7],compete for the same binding site
